Laboratory results taken from ChEMBL document CHEMBL3132835, “Biological evaluation and molecular modelling of didanosine derivatives” (Medchemcomm, 2014).

What was measured:
[1] = Selectivity index, ratio of CCID50 for human PBMC to IC50 for HIV-1 HTLV-3B; format: functional
[2] = Cytotoxicity against human PBMC assessed as inhibition of cell growth by trypan blue staining; format: cell-based; settings: read-out: CCID50
[3] = system: Human immunodeficiency virus 1; assay: Antiviral activity against HIV-1 HTLV-3B infected in human PBMC cells assessed as inhibition of viral production by p24 antigen production/ELISA; format: functional, organism-based; settings: Human immunodeficiency virus 1, HTLV-3B
[4] = system: Human immunodeficiency virus 1; assay: Fold resistance, ratio of IC50 for NRTI-resistant HIV-1 D67N, T69D, K70R, A98G, V118I, M184V, T215F and K219Q mutant to wild type HIV-1 isolate infected in human PBMC cells; format: functional
[5] = system: Human immunodeficiency virus 1; assay: Antiviral activity against wild type HIV-1 isolate infected in human PBMC cells assessed as inhibition of viral production by p24 antigen production/ELISA; format: functional, organism-based; settings: Human immunodeficiency virus 1, PBMC
[6] = Half life in rat; format: ADME, organism-based; settings: in vivo

| IC50 [3] [µM] | Compound | Selectivity Index [1] | CC50 [2] [µM] | Ratio IC50 [4] | IC50 [5] [µM] | half-life [6] [h] |
| --- | --- | --- | --- | --- | --- | --- |
| 490 | CCOC(=O)OC[C@@H]1CC[C@H](n2cnc3c(=O)nc[nH]c32)O1 | 1.2 | 570 |  |  |  |
| 100 | CCCCOC(=O)OC[C@@H]1CC[C@H](n2cnc3c(=O)nc[nH]c32)O1 | 2.9 | 290 |  |  |  |
| 40 | CCCCCCOC(=O)OC[C@@H]1CC[C@H](n2cnc3c(=O)nc[nH]c32)O1 | 5.2 | 220 |  |  |  |
| 300 | CCCCCCCOC(=O)OC[C@@H]1CC[C@H](n2cnc3c(=O)nc[nH]c32)O1 | 1.7 | 520 |  |  |  |
|  | Cc1cn([C@H]2C[C@H](N=[N+]=[N-])[C@@H](CO)O2)c(=O)[nH]c1=O [ZIDOVUDINE] |  |  | 4000 | 0.216 |  |

| Compound | IC50 [3] [µM] | Selectivity Index [1] | CC50 [2] [µM] | Ratio IC50 [4] | IC50 [5] [µM] | half-life [6] [h] |
| --- | --- | --- | --- | --- | --- | --- |
| CCCCCOC(=O)OC[C@@H]1CC[C@H](n2cnc3c(=O)nc[nH]c32)O1 | 30 | 200 | 7000 | 600 | 6.49 |  |
| O=c1[nH]cnc2c1ncn2[C@H]1CC[C@@H](CO)O1 [DIDANOSINE] | 40 | 2.3 | 100 | 900 | 3.42 | 1 |
